# Calls of active or inactive are those of the source. The calls are words filed in the database; no cut-off is given here.
# Key:
# [1] = test system: Mus musculus; assay: Protection against BLM-induced lung fibrosis in C57BL/6 mouse assessed as reduction in hydroxyproline level at 25 mg/kg, ip qd for 7 days post BLM challenge measured on day 14; assay type: functional; conditions: C57BL/6, ip
# [2] = test system: Mus musculus; assay: Protection against BLM-induced lung fibrosis in C57BL/6 mouse assessed as TGF-beta1 level at 25 mg/kg, ip qd for 7 days post BLM challenge measured on day 7 by ELISA (reference value: 75.39 pg/ml); assay type: functional
# [3] = test system: Mus musculus; assay: Anti-inflammatory activity in BLM-induced C57BL/6 mouse model of acute lung neutrophilic inflammation assessed as reduction neutrophil count at 50 mg/kg, ip qd for 7 days post BLM challenge measured on day 7; assay type: functional, organism-based
# [4] = test system: Mus musculus; assay: Anti-inflammatory activity in BLM-induced C57BL/6 mouse model of acute lung injury assessed as reduction in IL-6 level in BALF at 10 and 25 mg/kg, ip qd for 7 days post BLM challenge measured on day 7 by ELISA; assay type: functional, organism-based
# [5] = test system: Mus musculus; assay: Anti-inflammatory activity in BLM-induced C57BL/6 mouse model of acute lung neutrophilic inflammation assessed as LTB4 level at 25 mg/kg, ip qd for 7 days post BLM challenge measured on day 7 (reference value: 139.23 pg/ml); assay type: functional
# [6] = test system: Mus musculus; assay: Anti-inflammatory activity in BLM-induced C57BL/6 mouse model of acute lung neutrophilic inflammation assessed as reduction in macrophage number in BALF at 10 and 25 mg/kg, ip qd for 7 days post BLM challenge measured on day 7; assay type: functional, organism-based
# [7] = test system: Mus musculus; assay: Protection against BLM-induced lung fibrosis in C57BL/6 mouse assessed as reduction in deposition of collagen fibers at 10 and 25 mg/kg, ip qd for 7 days post BLM challenge measured on day 7 by Massons trichrome staining based method; assay type: functional, organism-based
# [8] = species: Mus musculus; conditions: C57BL/6, at 25 mg/kg
# Description: Inhibition of LTB4 biosynthesis in LPS-induced C57BL/6 mouse model of acute lung injury BLAF at 25 mg/kg, ip by ELISA
# [9] = test system: Mus musculus; assay: Anti-inflammatory activity in BLM-induced C57BL/6 mouse model of acute lung neutrophilic inflammation assessed as MPO activity at 50 mg/kg, ip qd for 7 days post BLM challenge measured on day 7 (reference value: 0.98 U/g); assay type: functional
# [10] = test system: Mus musculus; assay: Anti-inflammatory activity in BLM-induced C57BL/6 mouse model of acute lung injury assessed as reduction in IL-6 level in BALF at 25 and 50 mg/kg, ip qd for 7 days post BLM challenge measured on day 7 by ELISA; assay type: functional, organism-based
# [11] = test system: Plasma; assay: Plasma concentration in human; assay type: ADME, cell-free
# [12] = test system: Mus musculus; assay: Anti-inflammatory activity in LPS-induced C57BL/6 mouse model of acute lung injury assessed as reduction in neutrophil infiltration by measuring MPO activity at 10 to 50 mg/kg, ip pretreated for 1 hr followed LPS challenge measured after 24 hrs; assay type: functional, organism-based
# [13] = test system: Mus musculus; assay: Anti-inflammatory activity in LPS-induced C57BL/6 mouse model of acute lung injury assessed as reduction in lung lesions at 10 to 50 mg/kg, ip pretreated for 1 hr followed LPS challenge measured after 24 hrs by hematoxylin and eosin staining based microscopy; assay type: functional, organism-based
# [14] = test system: Mus musculus; assay: Anti-inflammatory activity in BLM-induced C57BL/6 mouse model of acute lung neutrophilic inflammation assessed as reduction in total cell number in BALF at 25 and 50 mg/kg, ip qd for 7 days post BLM challenge measured on day 7; assay type: functional, organism-based
# [15] = test system: Mus musculus; assay: Protection against BLM-induced lung fibrosis in C57BL/6 mouse assessed as TGF-beta1 level at 25 and 50 mg/kg, ip qd for 7 days post BLM challenge measured on day 14 by qRT-PCR method; assay type: functional, organism-based
# [16] = test system: Mus musculus; assay: Anti-inflammatory activity in LPS-induced C57BL/6 mouse model of acute lung injury assessed as reduction in protein concentration in BALF at 10 to 50 mg/kg, ip pretreated for 1 hr followed LPS challenge measured after 24 hrs; assay type: functional, organism-based
# [17] = test system: Mus musculus; assay: Anti-inflammatory activity in BLM-induced C57BL/6 mouse model of acute lung neutrophilic inflammation assessed as reduction neutrophil count at 25 mg/kg, ip qd for 7 days post BLM challenge measured on day 7; assay type: functional, organism-based
# [18] = test system: Mus musculus; assay: Protection against BLM-induced lung fibrosis in C57BL/6 mouse assessed as TGF-beta1 level at 25 and 50 mg/kg, ip qd for 7 days post BLM challenge measured on day 7 by qRT-PCR method; assay type: functional, organism-based
# [19] = test system: Mus musculus; assay: Anti-inflammatory activity in LPS-induced C57BL/6 mouse model of acute lung injury assessed as reduction in IL-1beta level pretreated intraperitoneally for 1 hr followed LPS challenge after 24 hrs by ELISA; assay type: functional
# [20] = test system: Mus musculus; assay: Anti-inflammatory activity in BLM-induced C57BL/6 mouse model of acute lung injury assessed as reduction in IL-1beta level in BALF at 25 and 50 mg/kg, ip qd for 7 days post BLM challenge measured on day 7 by ELISA; assay type: functional, organism-based
# [21] = test system: Mus musculus; assay: Anti-inflammatory activity in LPS-induced C57BL/6 mouse model of acute lung injury assessed as reduction in IL-6 level pretreated intraperitoneally for 1 hr followed LPS challenge after 24 hrs by ELISA; assay type: functional
# [22] = test system: Mus musculus; assay: Anti-inflammatory activity in LPS-induced C57BL/6 mouse model of acute lung injury assessed as reduction in hyperemia of pulmonary alveolar septa at 10 to 50 mg/kg, ip pretreated for 1 hr followed LPS challenge measured after 24 hrs by hematoxylin and eosin staining based microscopy; assay type: functional, organism-based
# [23] = test system: Mus musculus; assay: Anti-inflammatory activity in LPS-induced C57BL/6 mouse model of acute lung injury assessed as reduction in IL-6 mRNA level pretreated intraperitoneally for 1 hr followed LPS challenge after 24 hrs by qRT-PCR method; assay type: functional
# [24] = test system: Mus musculus; assay: Anti-inflammatory activity in LPS-induced C57BL/6 mouse model of acute lung injury assessed as reduction in alveolar vascular permeability at 10 to 50 mg/kg, ip pretreated for 1 hr followed LPS challenge measured after 24 hrs by Evans blue dye based microscopy; assay type: functional, organism-based
# [25] = test system: Mus musculus; assay: Protection against BLM-induced lung fibrosis in C57BL/6 mouse assessed as reduction in deposition of collagen fibers at 25 and 50 mg/kg, ip qd for 7 days post BLM challenge measured on day 7 by Massons trichrome staining based method; assay type: functional, organism-based
# [26] = test system: Mus musculus; assay: Anti-inflammatory activity in LPS-induced C57BL/6 mouse model of acute lung injury assessed as reduction in pulmonary edema by measuring lung wet and dry ratio at 10 to 50 mg/kg, ip pretreated for 1 hr followed LPS challenge after 24 hrs; assay type: functional, organism-based
# [27] = test system: Mus musculus; assay: Anti-inflammatory activity in LPS-induced C57BL/6 mouse model of acute lung injury assessed as reduction in IL-1beta mRNA level pretreated intraperitoneally for 1 hr followed LPS challenge after 24 hrs by qRT-PCR method; assay type: functional
# [28] = test system: Mus musculus; assay: Protection against BLM-induced lung fibrosis in C57BL/6 mouse assessed as TGF-beta1 level at 50 mg/kg, ip qd for 7 days post BLM challenge measured on day 14 by ELISA (reference value: 99.30 pg/ml); assay type: functional
# [29] = test system: Mus musculus; assay: Anti-inflammatory activity in LPS-induced C57BL/6 mouse model of acute lung injury assessed as reduction in total number of leucocytes in BALF at 10 to 50 mg/kg, ip pretreated for 1 hr followed LPS challenge measured after 24 hrs; assay type: functional, organism-based
compound,measurement,setting,value
CN(C)c1ccc(C(=O)NCCCCCCC(=O)NO)cc1,inhibition in vivo at 25 mg/kg,[1],34%
same,Activity,[2],31.74 pg/mL
same,Activity,[3],Active
same,Activity,[4],Active
same,Activity,[5],37.23 pg/mL
same,Activity,[6],Active
same,Activity,[7],Active
same,inhibition,[8],Active
O=C(CCCCCCC(=O)Nc1ccccc1)NO [VORINOSTAT],Activity,[9],0.67 U/g
same,Activity,[10],Active
same,concentration,[11],0.01 to 6 µM
same,Activity,[12],Active
same,Activity,[13],Active
same,Activity,[14],Active
same,Activity,[15],Active
same,Activity,[16],Active
same,Activity,[17],Active
same,Activity,[18],Active
same,Activity,[19],Dose-dependent effect
same,Activity,[20],Active
same,Activity,[21],Dose-dependent effect
same,Activity,[22],Active
same,Activity,[23],Dose-dependent effect
same,Activity,[24],Active
same,Activity,[25],Active
same,Activity,[26],Active
same,Activity,[27],Dose-dependent effect
same,Activity,[28],49.74 pg/mL
same,Activity,[29],Active
